Assay results taken from publication PMC7689916, “A Fluorescence Resonance Energy Transfer-Based Analytical Tool for Nitrate Quantification in Living Cells” (ACS Omega, 2020).
Changes are numbered by the printed parent chain.

Legend:
Assay in all cases: FRET ratio (YFP/CFP, […] nm) titration of purified sensor
Type in all cases: binding
[1] = molecular target: T1, NrtA (FLIP-NT; CFP_NrtA_YFP) (Synechocystis sp. PCC 6803, UniProt P73452, G240Q)
T1 construct: FRET sensor: His6-CFP-NrtA-YFP; NrtA without signal peptide (first 36 residues), stop and penultimate codon removed (1227 bp, 409 residues); E. coli BL21-CodonPlus(DE3), Ni-NTA
T1 sequence (P73452 37-445 G240Q): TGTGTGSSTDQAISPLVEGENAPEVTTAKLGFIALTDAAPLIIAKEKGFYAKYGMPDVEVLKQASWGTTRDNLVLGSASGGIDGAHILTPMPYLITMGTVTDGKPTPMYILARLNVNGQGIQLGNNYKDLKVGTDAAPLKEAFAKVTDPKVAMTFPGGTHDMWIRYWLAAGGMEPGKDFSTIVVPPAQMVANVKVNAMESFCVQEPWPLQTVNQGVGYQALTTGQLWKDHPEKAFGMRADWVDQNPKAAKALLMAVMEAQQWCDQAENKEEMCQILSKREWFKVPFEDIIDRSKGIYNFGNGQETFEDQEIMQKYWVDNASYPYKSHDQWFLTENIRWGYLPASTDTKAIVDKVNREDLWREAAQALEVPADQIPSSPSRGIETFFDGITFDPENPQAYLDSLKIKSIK

[2] = molecular target: T2, NrtA (FLIP-NT; CFP_NrtA_YFP) (Synechocystis sp. PCC 6803, UniProt P73452)
T2 construct: FRET sensor: His6-CFP-NrtA-YFP; NrtA without signal peptide (first 36 residues), stop and penultimate codon removed (1227 bp, 409 residues); E. coli BL21-CodonPlus(DE3), Ni-NTA
T2 sequence (P73452 37-445): T1 sequence (P73452 37-445 G240Q) with Q204G

[3] = molecular target: T3, NrtA (FLIP-NT; CFP_NrtA_YFP) (Synechocystis sp. PCC 6803, UniProt P73452, Q155I)
T3 construct: FRET sensor: His6-CFP-NrtA-YFP; NrtA without signal peptide (first 36 residues), stop and penultimate codon removed (1227 bp, 409 residues); E. coli BL21-CodonPlus(DE3), Ni-NTA
T3 sequence (P73452 37-445 Q155I): T1 sequence (P73452 37-445 G240Q) with Q119I, Q204G

[4] = molecular target: T4, NrtA (FLIP-NT; CFP_NrtA_YFP) (Synechocystis sp. PCC 6803, UniProt P73452, W102A)
T4 construct: FRET sensor: His6-CFP-NrtA-YFP; NrtA without signal peptide (first 36 residues), stop and penultimate codon removed (1227 bp, 409 residues); E. coli BL21-CodonPlus(DE3), Ni-NTA
T4 sequence (P73452 37-445 W102A): T1 sequence (P73452 37-445 G240Q) with W66A, Q204G

In the case of O=[N+]([O-])O [nitrate], the Kd [1] is reported as 32 µM, the Kd [2] is reported as 5 µM and the Kd [3] is reported as 1 µM. For the same compound, the Kd [4] was 56 µM.
